In general, EC50 refers to the concentration giving half of the maximal effect.

This note sets out measurements from patent US20250333406A1, “SULFONYL CYCLIC DERIVATIVES, AND COMPOSITIONS AND METHODS THEREOF” (Lysoway Therapeutics, Inc., priority 2023, published 2025).

Structures are written as SMILES.

For the assay, the system named is TFEB. Kind of assay: TFEB Nuclear Translocation Assay. Particulars: read-out: EC50 of TFEB activation. It counts as cell-based.
`CC(C)S(=O)(=O)c1ccc(S(=O)(=O)n2nc(N3CCCCC3C(F)(F)F)c3c(Cl)cccc32)cc1` (centres unmarked) [Compound 66, 4-chloro-1-(4-isopropylsulfonylphenyl)sulfonyl-3-[2-(trifluoromethyl)-1-piperidyl]indazole]: the EC50 is no more than 1000 nM.

In the case of `CC(C)S(=O)(=O)c1ccc(S(=O)(=O)n2nc(N3CCN(c4ncc(F)cn4)CC3C(F)(F)F)c3c(Cl)cccc32)cc1` (centres unmarked) [Compound 67, 4-chloro-3-[4-(5-fluoropyrimidin-2-yl)-2-(trifluoromethyl)piperazin-1-yl]-1-(4-isopropylsulfonylphenyl) sulfonyl-indazole], the concentration for a half-maximal effect (EC50) is no more than 1000 nM.

As to `CC(C)S(=O)(=O)c1ccc(S(=O)(=O)n2nc(N3CCN(c4ncc(F)cn4)C[C@@H]3C(F)(F)F)c3c(Cl)cccc32)cc1` [Compound 68, 4-chloro-3-[(2R)-4-(5-fluoropyrimidin-2-yl)-2-(trifluoromethyl)piperazin-1-yl]-1-(4-isopropylsulfonylphenyl) sulfonyl-indazole], the half-maximal effective concentration (EC50) is no more than 1000 nM.

For `CC(C)S(=O)(=O)c1ccc(S(=O)(=O)n2nc(N3CCN(C(=O)C(F)(F)F)C[C@@H]3C(F)(F)F)c3c(Cl)cccc32)cc1` [Compound 70, 1-[(3R)-4-[4-chloro-1-(4-isopropylsulfonylphenyl)sulfonyl-indazol-3-yl]-3-(trifluoromethyl)piperazin-1-yl]-2,2,2-trifluoro-ethanone], the EC50 is no more than 1000 nM.

As to `CC(C)S(=O)(=O)c1ccc(S(=O)(=O)n2nc(N3CCN(c4ncc(F)cn4)C[C@@H]3C(F)(F)F)c3c(F)cccc32)cc1` [Compound 72, 4-fluoro-3-[(2R)-4-(5-fluoropyrimidin-2-yl)-2-(trifluoromethyl)piperazin-1-yl]-1-(4-isopropylsulfonylphenyl)sulfonyl-indazole], the concentration for a half-maximal effect (EC50) was no more than 1000 nM.

As to `CC(C)S(=O)(=O)c1ccc(S(=O)(=O)n2nc(N3CCN(C(=O)C(F)F)CC3C(F)(F)F)c3c(Cl)cccc32)cc1` (centres unmarked) [Compound 74, 1-[4-[4-chloro-1-(4-isopropylsulfonylphenyl)sulfonyl-indazol-3-yl]-3-(trifluoromethyl)piperazin-1-yl]-2,2-difluoro-ethanone], the half-maximal effective concentration (EC50) was no more than 1000 nM.

Turning to `CC(C)S(=O)(=O)c1ccc(S(=O)(=O)n2nc(N3CCN(CC(F)(F)F)CC3C(F)(F)F)c3c(Cl)cccc32)cc1` (centres unmarked) [Compound 75, 4-chloro-1-(4-isopropylsulfonylphenyl)sulfonyl-3-[4-(2,2,2-trifluoroethyl)-2-(trifluoromethyl)piperazin-1-yl]indazole], the EC50 was no more than 1000 nM.

Turning to `O=C(N1CCN(c2nn(S(=O)(=O)c3ccc(C(F)F)cc3)c3cccc(Cl)c23)C(C(F)(F)F)C1)C(F)(F)F` (centres unmarked) [Compound 76, 1-[4-[4-chloro-1-[4-(difluoromethyl)phenyl]sulfonyl-indazol-3-yl]-3-(trifluoromethyl)piperazin-1-yl]-2,2,2-trifluoro-ethanone], the 50% effective concentration (EC50) is no more than 1000 nM.

Turning to `O=S(=O)(c1ccc(C(F)F)cc1)n1nc(N2CCN(c3ncc(F)cn3)CC2C(F)(F)F)c2c(Cl)cccc21` (centres unmarked) [Compound 77, 4-chloro-1-[4-(difluoromethyl)phenyl]sulfonyl-3-[4-(5-fluoropyrimidin-2-yl)-2-(trifluoromethyl)piperazin-1-yl]indazole], the concentration giving a half-maximal response (EC50) is no more than 1000 nM.

For the compound `O=S(=O)(c1ccc(C(F)F)cc1)n1nc(N2CCN(c3ncc(F)cn3)CC23CC3)c2c(Cl)cccc21` [Compound 78, 4-chloro-1-[4-(difluoromethyl)phenyl]sulfonyl-3-[7-(5-fluoropyrimidin-2-yl)-4,7-diazaspiro [2.5]octan-4-yl]indazole], the EC50 is no more than 1000 nM.

As to `CC(C)S(=O)(=O)c1ccc(S(=O)(=O)n2nc(N3CCC(Cl)=CC3C(F)(F)F)c3c(Cl)cccc32)cc1` (centres unmarked) [Compound 79, 4-chloro-3-[4-chloro-6-(trifluoromethyl)-3,6-dihydro-2H-pyridin-1-yl]-1-(4-isopropylsulfonylphenyl) sulfonyl-indazole], the half-maximal effective concentration (EC50) was no more than 1000 nM.

With `CC(C)S(=O)(=O)c1ccc(S(=O)(=O)n2nc(N3CCC(Cl)=C[C@@H]3C(F)(F)F)c3c(Cl)cccc32)cc1` [Compound 80, 4-chloro-3-[(6R)-4-chloro-6-(trifluoromethyl)-3,6-dihydro-2H-pyridin-1-yl]-1-(4-isopropylsulfonylphenyl)sulfonyl-indazole], the EC50 was no more than 1000 nM.

Take `CC(C)S(=O)(=O)c1ccc(S(=O)(=O)n2nc(N3CCC(Cl)=C[C@H]3C(F)(F)F)c3c(Cl)cccc32)cc1` [Compound 81, 4-chloro-3-[(6S)-4-chloro-6-(trifluoromethyl)-3,6-dihydro-2H-pyridin-1-yl]-1-(4-isopropylsulfonylphenyl)sulfonyl-indazole]: the EC50 was no more than 1000 nM.

Regarding `CC(C)S(=O)(=O)c1ccc(S(=O)(=O)n2nc(N3CC=C(Cl)C[C@@H]3C(F)(F)F)c3c(Cl)cccc32)cc1` [Compound 82, 4-chloro-3-[(2R)-4-chloro-2-(trifluoromethyl)-3,6-dihydro-2H-pyridin-1-yl]-1-(4-isopropylsulfonylphenyl)sulfonyl-indazole], the EC50 is no more than 1000 nM.

For the compound `CC(C)S(=O)(=O)c1ccc(S(=O)(=O)n2nc(N3CCC(=O)CC3C(F)(F)F)c3c(Cl)cccc32)cc1` (centres unmarked) [Compound 84, 1-[4-chloro-1-(4-isopropylsulfonylphenyl)sulfonyl-indazol-3-yl]-2-(trifluoromethyl)piperidin-4-one], the EC50 is no more than 1000 nM.

Take `CC(C)S(=O)(=O)c1ccc(S(=O)(=O)n2nc(N3CCC(F)(F)CC3C(F)(F)F)c3c(Cl)cccc32)cc1` (centres unmarked) [Compound 85, 4-chloro-3-[4,4-difluoro-2-(trifluoromethyl)-1-piperidyl]-1-(4-isopropylsulfonylphenyl) sulfonyl-indazole]: the EC50 is no more than 1000 nM.

`CC(C)S(=O)(=O)c1ccc(S(=O)(=O)n2nc(N3CCC(OC(F)F)CC3C(F)(F)F)c3c(Cl)cccc32)cc1` (centres unmarked) [Compound 86, 4-chloro-3-[4-(difluoromethoxy)-2-(trifluoromethyl)-1-piperidyl]-1-(4-isopropylsulfonylphenyl) sulfonyl-indazole]: the 50% effective concentration (EC50) is no more than 1000 nM.

On to `CC(C)S(=O)(=O)c1ccc(S(=O)(=O)n2nc(N3CCC(OC(F)F)CC34CC4)c3c(Cl)cccc32)cc1` (centres unmarked) [Compound 87, 4-chloro-3-[7-(difluoromethoxy)-4-azaspiro [2.5]octan-4-yl]-1-(4-isopropylsulfonylphenyl) sulfonyl-indazole], for which the concentration giving a half-maximal response (EC50) is no more than 1000 nM.

As for `CC(F)(F)c1ccc(S(=O)(=O)n2nc(N3CCC4(CCO4)CC34CC4)c3c(Cl)cccc32)cc1` (centres unmarked) [Compound 88, 11-[4-chloro-1-[4-(1,1-difluoroethyl)phenyl]sulfonyl-indazol-3-yl]-8-oxa-11-azadispiro [2.1.35.33]undecane], the EC50 is no less than 10000 nM.

`O=S(=O)(c1ccc(C2(F)COC2)cc1)n1nc(N2CCN(c3ncc(F)cn3)CC23CC3)c2c(Cl)cccc21` [Compound 89, 4-chloro-1-[4-(3-fluorooxetan-3-yl)phenyl]sulfonyl-3-[7-(5-fluoropyrimidin-2-yl)-4,7-diazaspiro [2.5]octan-4-yl]indazole]: the EC50 is no more than 1000 nM.

On to `CC(C)C(F)(F)c1ccc(S(=O)(=O)n2nc(N3CCN(c4ncc(F)cn4)CC34CC4)c3c(Cl)cccc32)cc1` [Compound 90, 4-chloro-1-[4-(1,1-difluoro-2-methyl-propyl)phenyl]sulfonyl-3-[7-(5-fluoropyrimidin-2-yl)-4,7-diazaspiro [2.5]octan-4-yl]indazole], for which the EC50 was no more than 1000 nM.

`CC(F)(F)c1ccc(S(=O)(=O)n2nc(N3CCN(c4ncc(F)cn4)CC34CC4)c3c(Cl)cc(F)cc32)cc1` [Compound 91, 4-chloro-1-[4-(1,1-difluoroethyl)phenyl]sulfonyl-6-fluoro-3-[7-(5-fluoropyrimidin-2-yl)-4,7-diazaspiro [2.5]octan-4-yl]indazole]: the EC50 was no more than 1000 nM.

In the case of `O=S(=O)(c1ccc(C(F)(F)C2CC2)cc1)n1nc(N2CCN(c3ncc(F)cn3)CC23CC3)c2c(Cl)cccc21` [Compound 92, 4-chloro-1-((4-(cyclopropyldifluoromethyl)phenyl)sulfonyl)-3-(7-(5-fluoropyrimidin-2-yl)-4,7-diazaspiro [2.5]octan-4-yl)-1H-indazole], the concentration giving a half-maximal response (EC50) was no more than 1000 nM.

Consider `O=S(=O)(c1ccc(SC(F)F)cc1)n1nc(N2CCN(c3ncc(F)cn3)CC23CC3)c2c(Cl)cccc21` [Compound 93, 4-chloro-1-[4-(difluoromethylsulfanyl)phenyl]sulfonyl-3-[7-(5-fluoropyrimidin-2-yl)-4,7-diazaspiro [2.5]octan-4-yl]indazole], for which the EC50 was no more than 1000 nM.

In the case of `CC(C)(C)c1ccc(S(=O)(=O)n2nc(N3CCN(c4ncc(F)cn4)CC34CC4)c3c(Cl)cccc32)cc1` [Compound 94, 1-((4-(tert-butyl)phenyl)sulfonyl)-4-chloro-3-(7-(5-fluoropyrimidin-2-yl)-4,7-diazaspiro [2.5]octan-4-yl)-1H-indazole], the concentration for a half-maximal effect (EC50) is no more than 1000 nM.

Regarding `O=S(=O)(c1ccc(C(F)(F)C(F)F)cc1)n1nc(N2CCN(c3ncc(F)cn3)CC23CC3)c2c(Cl)cccc21` [Compound 95, 4-chloro-3-(7-(5-fluoropyrimidin-2-yl)-4,7-diazaspiro [2.5]octan-4-yl)-1-((4-(1,1,2,2-tetrafluoroethyl)phenyl)sulfonyl)-1H-indazole], the EC50 was no more than 1000 nM.

For the compound `CC(C)(CF)c1ccc(S(=O)(=O)n2nc(N3CCN(c4ncc(F)cn4)CC34CC4)c3c(Cl)cccc32)cc1` [Compound 96, 4-chloro-1-[4-(2-fluoro-1,1-dimethyl-ethyl)phenyl]sulfonyl-3-[7-(5-fluoropyrimidin-2-yl)-4,7-diazaspiro [2.5]octan-4-yl]indazole], the half-maximal effective concentration (EC50) is no more than 1000 nM.

Consider `CC(C)(F)c1ccc(S(=O)(=O)n2nc(N3CCN(c4ncc(F)cn4)CC34CC4)c3c(Cl)cccc32)cc1` [Compound 97, 4-chloro-1-((4-(2-fluoropropan-2-yl)phenyl)sulfonyl)-3-(7-(5-fluoropyrimidin-2-yl)-4,7-diazaspiro [2.5]octan-4-yl)-1H-indazole], for which the half-maximal effective concentration (EC50) was no more than 1000 nM.

Turning to `O=S(=O)(c1ccc(C(F)(F)CF)cc1)n1nc(N2CCN(c3ncc(F)cn3)CC23CC3)c2c(Cl)cccc21` [Compound 98, 4-chloro-3-[7-(5-fluoropyrimidin-2-yl)-4,7-diazaspiro [2.5]octan-4-yl]-1-[4-(1,1,2-trifluoroethyl)phenyl]sulfonyl-indazole], the concentration giving a half-maximal response (EC50) is no more than 1000 nM.
